The values that follow come from PMC11357484, “Investigating Changes in Pharmacokinetics of Steroidal Alkaloids from a Hydroethanolic Fritillariae thunbergii Bulbus Extract in 2,4-Dinitrobenzene Sulfonic Acid-Induced Colitis Rats” (Pharmaceuticals, 2024).

A short description of data set [1]: Pharmacokinetics of steroidal alkaloids after single oral FTB dose in normal and DNBS-induced colitis rats. In kind it is in vivo, Sprague–Dawley rats. The note with it: for AUC_%Extrap_obs / AUClast / AUMClast / Cmax / MRT last / Tmax / half-life: oral FTB 1 g/kg single dose, plasma, mean ± SD, n = 5; for Cmax / MRT last / Tmax / half-life: male, Sprague-Dawley, rat, po, 1 g/kg; for half-life under colitis compared with normal conditions / systemic exposure under colitis condition compared with normal state: oral FTB 1 g/kg, DNBS vs normal rats. As for the experimental part:
Ten-week-old male Sprague–Dawley rats were obtained from Samtaco (Osan, Republic of Korea), quarantined, and acclimatized for one week before the experiments. All animal experiments were approved by the Animal Care and Use Committee of Chungnam National University (202304A-CNU-067). The rats were fasted for 14–16 h the day before administration of DNBS (Sigma-Aldrich). After the rats were anesthetized with isoflurane, the colitis group received a single dose of 30 mg/250 μL in 50% ethanol through a medical grade polyurethane catheter, injected rectally into the descending colon 8 cm from the anal sphincter. DNBS was administered slowly over 1 min, and the rats were kept supine in the Trendelenburg position for 3 min after injection to prevent leakage. The normal group received only 50% ethanol, following the same procedure as described above. The pharmacokinetic study was performed four days after DNBS administration, and both the normal and DNBS groups were orally administered a single dose of 1 g/kg FTB. Blood samples were obtained from the tail vein at 0, 0.5, 0.75, 1, 2, 4, 6, 8, 10, 12, 24, and 30 h, and the rats were sacrificed after the last blood collection. The plasma samples obtained were centrifuged at 16,000× g for 15 min and stored at −80 °C until analysis.
Plasma concentrations were measured using UPLC-MS/MS (Agilent Technologies Inc.) in the same manner as described above. 100 μL of plasma was vortexed with 20 μL ammonia water and 800 μL ethyl acetate for 15 min and centrifuged at 16,000× g for 15 min. After evaporating 800 μL of the supernatant under nitrogen at 40 °C, 50 μL of 50% methanol was added. The mixture was then vortexed and centrifuged, and 5 μL of the final extract was used for analysis.
For the plasma concentration analysis, the limit of detection and limit of quantification (LOQ) were defined based on the concentration of the analyte, which generated signal-to-noise (S/N) ratios of 3 and 10, respectively, following the “Guideline on Bioanalytical Method Validation” for the Ministry of Food and Drug Safety in Korea (MFDS 2023). Among the active ingredients of FTB, peimine, peimisine, peiminine, and sipeimine were detected in concentrations above the LOQ —the multiple reaction monitoring conditions of each of them are summarized in Supplementary Table S2. The calibration curves were linear over the concentration range of 0 to 2000 ng/mL, with a correlation coefficient of R^2 > 0.99. Precision and accuracy were evaluated by calculating the intra- and inter-day recoveries of quality control samples at three concentrations: 10, 50, and 100 ng/mL. The intra- and inter-day recoveries were within the range of 84.6 to 115.6%, and the coefficient of variation was less than 10%. Detailed validation results for the analysis method of peimine, peimisine, peiminine, and sipeimine are summarized in Supplementary Table S3.
The pharmacokinetic parameters were calculated based on a non-compartmental model using Monolix 2023R1 (Lixoft SAS, Simulations Plus Inc., Lancaster, CA, USA). The dosage of each component was calculated based on the content of the component within the FTB, and applied in the pharmacokinetics analysis. From the data analyzed, the Cmax of FTB and the time to Cmax (Tmax) were determined. Elimination half-life was obtained by linear regression of log-tranformed concentration data in the late phase. The AUC was estimated using the linear log-trapezoidal and linear up-log-down rules for the time of final concentration in each group.

The conditions of data set [2]: cited from earlier work.
The test system of another data set is RAW 264.7 cells. Briefly: Cell viability (EZ-Cytox) in RAW 264.7 cells. In kind it is cell-based, mouse. The note with it: 24 h incubation. The protocol:
(§1) The RAW 264.7, a mouse macrophage cell line (American Type Culture Collection, Manassas, VA, USA), was grown in DMEM medium supplemented with 10% fetal bovine serum and 1% penicillin–streptomycin at 37 °C with 5% CO2.
To determine cell viability against the four steroidal alkaloids, peimine, peimisine, peiminine, and sipeimine, RAW 264.7 cells were seeded at a density of 5 × 10^4 cells/well in 96-well plates and incubated overnight. Cells were then incubated with various concentrations of the four compounds (0, 0.78, 1.56, 3.13, 6.25, 12.5, 25, 50, and 100 μg/mL) for 24 h, respectively. Subsequently, 10 μL of EZ-Cytox (DoGenBio Co., Seoul, Republic of Korea) was added and incubated for 1 h. Absorbance was measured at 450 nm using an enzyme-linked immunosorbent assay reader (Bio-Rad Laboratories, Hercules, CA, USA). Cell viability was calculated by comparing the values measured with those of untreated cells.

The test system of data set [3] is LPS-stimulated RAW 264.7 cells. Briefly: Pro-inflammatory cytokine mRNA expression (qPCR) in LPS-stimulated RAW 264.7 cells. The note with it: 25 μg/mL; 24 h pretreatment then LPS 4 h; vs LPS alone. The format is cell-based, mouse. As for the experimental part:
as §1
To evaluate the anti-inflammatory effects of the active ingredients in FTB, the cells were seeded in 12-well plates at 3 × 10^5 cells/mL and treated with 25 μg/mL of the four steroidal alkaloids, peimine, peimisine, peiminine and sipeimine, respectively, a concentration determined to be non-toxic according to the cell viability assay. LPS (Sigma-Aldrich, St. Louis, MO, USA) from Escherichia coli O111:B4 was used as a control at a concentration of 10 μg/mL. Cells were pretreated with the compounds for 24 h, followed by treatment with LPS for 4 h. After cells were harvested, total RNA was extracted using a total RNA extraction kit (Samjung Bioscience, Daejeon, Republic of Korea), and the extracted RNA was reverse transcribed into cDNA. The synthesized cDNA was subjected to quantitative polymerase chain reaction to measure the mRNA expression levels of cytokines using the following forward and reverse primers: IL-1β, forward, 5′-[…]-3′; reverse, 5′-[…]-3′; IL-6, forward, 5′-[…]-3′; reverse, 5′-[…]-3′; TNF-α, forward, 5′-[…]-3′; reverse, 5′-[…]-3′; GAPDH, forward, 5′-[…]-3′; reverse, 5′-[…]-3′.
A general note: In qPCR the cycle at which signal appears reflects the starting amount.

As for `C[C@H]1CC[C@@H]2N(C1)C[C@H]1[C@@H]3C[C@H]4[C@@H](C[C@H](O)[C@H]5C[C@@H](O)CC[C@@]54C)[C@@H]3CC[C@@H]1[C@]2(C)O` [peimine], in data set [1] (DNBS-treated (colitis) rats), the AUC_%Extrap_obs stood at 6.6 ± 6.6%, the AUClast is given as 1076.9 ± 444.1 h∗ng/mL, the AUMClast was 2819.7 ± 1408.9 h∗h∗ng/mL and the Cmax (commonly the peak of the concentration-time curve) is 351 ± 150 ng/mL. In data set [1] (DNBS-treated (colitis) rats), the MRT last (commonly the average time that molecules of a dose stay in the body) worked out at 2.7 ± 0.6 h, the Tmax (commonly the time from dosing to the highest level) was 1 ± 0.7 h and the half-life (commonly the time in which the quantity being followed falls by half) is 1.9 ± 0.7 h. Moreover, in data set [1] (normal rats), the Cmax is 356 ± 253 ng/mL, the MRT last stood at 3.7 ± 0.8 h, the Tmax turned out to be 0.7 ± 0.2 h and the half-life was 4 ± 2.5 h. In data set [1] (normal rats), this compound displayed an AUC_%Extrap_obs of 6.7 ± 5.5%, an AUClast of 1311.8 ± 762.6 h∗ng/mL and an AUMClast of 4511.4 ± 2253.8 h∗h∗ng/mL. Besides, in data set [1], the “half-life under colitis compared with normal conditions” value is “shorter half-life” and the “systemic exposure under colitis condition compared with normal state” value (“systemic exposure … compared with normal state” below) is reported as “no observable difference”. For the same compound, the “partition coefficient (logP)” value in data set [2] is on record as 4.1. Further, the “concentrations at which no toxicity was shown (cell viability)” value in the data set on RAW 264.7 cells fell in the range of 0 to 25000 ng/mL.
In data set [1] (DNBS-treated (colitis) rats), `C[C@H]1CC[C@@H]2N(C1)C[C@H]1[C@@H]3C[C@H]4[C@@H](CC(=O)[C@H]5C[C@@H](O)CC[C@@]54C)[C@@H]3CC[C@@H]1[C@]2(C)O` [peiminine] came in with an AUC_%Extrap_obs of 3.3 ± 2.9%, an AUClast of 888.8 ± 286.0 h∗ng/mL, an AUMClast of 3149.7 ± 1242.0 h∗h∗ng/mL and a Cmax of 209 ± 51.1 ng/mL. Further, in data set [1] (DNBS-treated (colitis) rats), the MRT last turned out to be 3.6 ± 0.6 h, the Tmax was 1.3 ± 0.8 h and the half-life is 1.8 ± 0.9 h. For the same compound, in data set [1] (normal rats), the highest level (Cmax) was 228 ± 110 ng/mL, the MRT last worked out at 4.7 ± 1.1 h, the Tmax was 1 ± 0.2 h and the half-life was 4.5 ± 2 h. In addition, in data set [1] (normal rats), the AUC_%Extrap_obs amounted to 14.5 ± 15.7%, the AUClast came to 1172.4 ± 392.3 h∗ng/mL and the AUMClast was found to be 5302.0 ± 1844.3 h∗h∗ng/mL. Moreover, in data set [1], the “half-life under colitis compared with normal conditions” value is given as “shorter half-life” and the “systemic exposure … compared with normal state” value is reported as “no observable difference”. Also, the “IL-6 mRNA expression lowered” value in data set [3] is “approximately 5 fold”. Further, in data set [2], the pKa result was “approximately 14” and the “partition coefficient (logP)” value is 3.9. Also, the “concentrations at which no toxicity was shown (cell viability)” value in the data set on RAW 264.7 cells is 0 to 25000 ng/mL.
Consider `CC1=C2C[C@H]3[C@@H](CC(=O)C4C[C@@H](O)CC[C@@]43C)[C@@H]2CC[C@]12OC1C[C@H](C)CN[C@H]1[C@H]2C` (some centres unmarked) [peimisine], for which, in data set [1] (DNBS-treated (colitis) rats), the AUC_%Extrap_obs is listed as 8.9 ± 11.6%, the AUClast is recorded as 16,895.4 ± 5782.1 h∗ng/mL, the AUMClast is reported as 126,755.7 ± 54,141.2 h∗h∗ng/mL and the concentration peaked (Cmax) at 2330 ± 363 ng/mL. In addition, in data set [1] (DNBS-treated (colitis) rats), the MRT last was 7.3 ± 1.3 h, the Tmax was determined as 1.5 ± 0.8 h and the half-life is 7.7 ± 4.9 h. Further, in data set [1] (normal rats), the Cmax amounted to 656 ± 672 ng/mL, the MRT last was 5 ± 2 h, the Tmax worked out at 0.9 ± 0.2 h and the half-life was 3.9 ± 1.7 h. In data set [1] (normal rats), the AUC_%Extrap_obs was found to be 5.3 ± 4.0%, the AUClast is recorded as 3959.3 ± 4738.6 h∗ng/mL and the AUMClast is on record as 23,522.8 ± 33,482.7 h∗h∗ng/mL. For the same compound, the “systemic exposure … compared with normal state” value in data set [1] was “approximately five times higher”. Further, in data set [3], the “IL-1β mRNA expression lowered” value is reported as “about 6 fold” and the “TNF-α mRNA expression lowered” value was approximately 3 fold. Besides, in data set [2], the pKa result is reported as “approximately 14” and the “partition coefficient (logP)” value was 2.7. Besides, the “concentrations at which no toxicity was shown (cell viability)” value with RAW 264.7 cells is 0 to 25000 ng/mL.
In data set [1] (DNBS-treated (colitis) rats), `C[C@H]1CC[C@@H]2N(C1)C[C@H]1[C@@H]3C[C@H]4[C@@H](CC(=O)[C@H]5C[C@@H](O)CC[C@@]54C)[C@@H]3CC[C@H]1[C@]2(C)O` [sipeimine] displayed an AUC_%Extrap_obs of 11.0 ± 8.3%, an AUClast of 764.0 ± 285.5 h∗ng/mL, an AUMClast of 3588.3 ± 1486.0 h∗h∗ng/mL and a Cmax of 162 ± 97 ng/mL. Further, in data set [1] (DNBS-treated (colitis) rats), the MRT last amounted to 4.7 ± 0.6 h, the Tmax came out at 2.4 ± 1.2 h and the half-life was 3.2 ± 1.6 h. Moreover, in data set [1] (normal rats), the Cmax was 64.7 ± 13.4 ng/mL, the MRT last was found to be 5.4 ± 1.7 h, the Tmax is 1.3 ± 0.5 h and the half-life was 6.9 ± 5.6 h. In data set [1] (normal rats), the AUC_%Extrap_obs is given as 10.4 ± 8.6%, the AUClast is listed as 463.5 ± 232.8 h∗ng/mL and the AUMClast is recorded as 2675.8 ± 2026.3 h∗h∗ng/mL. Besides, in data set [1], the “half-life under colitis compared with normal conditions” value is “shorter half-life” and the “systemic exposure … compared with normal state” value is “no observable difference”. In addition, in data set [2], the pKa result is “approximately 14” and the “partition coefficient (logP)” value is reported as 4.4. Also, the “concentrations at which no toxicity was shown (cell viability)” value in the data set on RAW 264.7 cells was 0 to 25000 ng/mL.
